Article PMC9983021, “Novel GluN2B-Selective NMDA Receptor Negative Allosteric Modulator Possesses Intrinsic Analgesic Properties and Enhances Analgesia of Morphine in a Rodent Tail Flick Pain Model” (ACS Chemical Neuroscience, 2023)

Experiments:
GABAA = test: Radioligand binding assay (NIMH PDSP); parameters: species or system human; details: primary screen, 10 µM, quadruplicate
Experimental: (§1) Conventional competition and saturation radioligand binding assays were used to determine the affinities of reference standards and EU93-108. Experiments were carried out by the NIMH Psychoactive Drug Screening Program (PDSP) and were performed as previously described.[123]
(§2) The detailed experimental protocols for the radioligand assays are available on the NIMH PDSP website at https://pdsp.unc.edu/pdspweb/content/UNC-CH%20Protocol%20Book.pdf.
(§3) Receptor Mean % Receptor Mean % Receptor Mean %
(§4) Inhibition Inhibition Inhibition
(§5) Supplemental Table S4. Off-Target Actions of EU93-108: Primary GPCR Screen. Cloned human molecular targets were individually expressed and submitted to molecular target-based screening with initial screens performed at a final concentration of 10 µM in quadruplicate. Complete protocols for the assays have been previously published (Besnard J et al. 2012). Where inhibition greater than 50% was measured, secondary screens were performed wherein Ki values were calculated (see Table 4).

PBR = test: Radioligand binding assay (NIMH PDSP); parameters: species or system human; details: primary screen, 10 µM, quadruplicate
Experimental: as §1, §2, §3, §4, §5

hP2x = test: Off-target ligand-gated ion channels in Xenopus oocytes; assay type: cell-based, human; details: agonist 9 µM ATP; mean ± SEM
Experimental: EU93-108 was further examined for its behavior against common off-target receptors. First, selectivity for GluN2B over other ion channels in the brain was examined via two-electrode voltage clamp recordings of Xenopus oocytes expressing AMPA, kainate, nicotinic acetylcholine, serotonin, GABA, glycine, and ATP receptors. Current responses were tested with saturating concentrations of agonist in both the absence and presence of 10 μM EU93-108, and confirmed selectivity for GluN2B-containing NMDA receptors over AMPA, kainate, GABA, glycine, ATP, and 5-HT3A receptors (Supporting Table S3).
Receptor Agonist % Control
Supplemental Table S3. Off-target actions of EU93-108 at ligand-gated ion channels expressed in Xenopus oocytes. The mean ± standard error of the mean for agonist plus 10 μM EU93-108 as a percentage of agonist in vehicle are given for each compound and receptor tested. Number of oocytes tested is given in parentheses.

C57BL/6J mice [1] = test: Hot water tail immersion test, acute co-administration with 5 mg/kg morphine; assay type: in vivo; details: for lowest dose that significantly increased latency: plus 5 mg/kg morphine s.c.
Experimental: We were next interested in evaluating the effects of EU93-108 when given acutely in combination with morphine. 5 mg/kg morphine was chosen because this dose elicited an approximately half-maximal response in our initial morphine dose–response curve (Supporting Figure S3). This half-maximal response would allow us to see any changes in tail flick latency that EU93-108 might elicit.
Four treatment groups and one control group were used (n = 8 per group). The control group received vehicle (10% DMSO, 20% PEG, 2% DMA in water) i.p. plus 5 mg/kg morphine s.c. formulated in normal saline, and groups 1–4 were randomly assigned one dose of EU93-108 i.p. plus 5 mg/kg morphine s.c. The doses used were the same as in the intrinsic analgesia experiments.
All animal studies performed at Emory have been approved by the Institutional Animal Care and Use Committee at Emory University. Male and female C57BL/6J mice weighing between 20 and 30 g were housed five per cage and given ad libitum access to food and water. The mice were 8–10 weeks of age at the time of experimentation. Animal holding rooms operated on a 12 h dark/light cycle with the dark cycle from 7:00 pm to 7:00 am. Mice were allowed to acclimate in cages for one week after arrival. […]
(§6) Mouse weights were recorded on the day of each experiment. […] Three recordings were taken for each mouse, and each data point is expressed as the mean of the three recordings. […] The identities were not decoded until the data were analyzed.
(§7) Prism 9.3.1 software (GraphPad, San Diego, CA) was used for all data analysis and visualization. Data for intrinsic antinociception was analyzed using one-way ANOVA and Dunnett’s post hoc test for multiple comparisons where each group was compared to vehicle. Data for acute morphine potentiation experiments were analyzed using one-way ANOVA and Tukey’s post hoc test for multiple comparisons was also used, where each group mean was compared to the mean of every other group. Data for tolerance experiments were analyzed using repeated measures two-way ANOVA and Bonferroni post hoc analysis. […]

[2] = target: diheteromeric rat GluN1/GluN2Ac1/GluN2Ac2 (r2Ac1/r2Ac2) (Rattus norvegicus, UniProt P35439+Q00959); test: Concentration-inhibition curves, oocytes, C1/C2-tagged NMDARs
C57BL/6J mice [3] = test: Preestablished morphine tolerance (tolerant mice, tail immersion test); assay type: in vivo; details: males 10 mg/kg, females 20 mg/kg i.p.
Source text: We next wanted to assess EU93-108 for effects on other facets of tolerance. Specifically, we were interested in whether EU93-108 could increase tail flick latency in mice that were already tolerant to morphine (i.e., preestablished tolerance). To assess the effect of EU93-108 on preestablished tolerance, five groups were used (n = 8 per group): vehicle/saline, vehicle/morphine, ifenprodil/morphine, EU93-108/saline, and EU93-108/morphine. All groups except for the vehicle/saline control group were administered morphine three times per day (according to the stair stepping protocol outlined in Figure 11) at gradually increasing doses from 25 to 40 mg/kg three times a day at 3–4 h intervals for three consecutive days until tolerance was observed on day 4 (Figure 12, black circles).
Figure 11 Dosing regimen to assess effects of EU93-108 on tolerant mice. TIT = tail immersion test. All mice received morphine or saline three times a day according to the protocol in Figure 9. Doses of morphine are shown above the arrows, in mg/kg. Once tolerance was established on day 4, the mice were randomly assigned to receive vehicle, EU93-108, or ifenprodil once a day for two consecutive days. […]
as §6, §7

Chain of diheteromeric rat GluN1/GluN2Ac1/GluN2Ac2 (r2Ac1/r2Ac2) (Q00959 23-1464, other chains not shown): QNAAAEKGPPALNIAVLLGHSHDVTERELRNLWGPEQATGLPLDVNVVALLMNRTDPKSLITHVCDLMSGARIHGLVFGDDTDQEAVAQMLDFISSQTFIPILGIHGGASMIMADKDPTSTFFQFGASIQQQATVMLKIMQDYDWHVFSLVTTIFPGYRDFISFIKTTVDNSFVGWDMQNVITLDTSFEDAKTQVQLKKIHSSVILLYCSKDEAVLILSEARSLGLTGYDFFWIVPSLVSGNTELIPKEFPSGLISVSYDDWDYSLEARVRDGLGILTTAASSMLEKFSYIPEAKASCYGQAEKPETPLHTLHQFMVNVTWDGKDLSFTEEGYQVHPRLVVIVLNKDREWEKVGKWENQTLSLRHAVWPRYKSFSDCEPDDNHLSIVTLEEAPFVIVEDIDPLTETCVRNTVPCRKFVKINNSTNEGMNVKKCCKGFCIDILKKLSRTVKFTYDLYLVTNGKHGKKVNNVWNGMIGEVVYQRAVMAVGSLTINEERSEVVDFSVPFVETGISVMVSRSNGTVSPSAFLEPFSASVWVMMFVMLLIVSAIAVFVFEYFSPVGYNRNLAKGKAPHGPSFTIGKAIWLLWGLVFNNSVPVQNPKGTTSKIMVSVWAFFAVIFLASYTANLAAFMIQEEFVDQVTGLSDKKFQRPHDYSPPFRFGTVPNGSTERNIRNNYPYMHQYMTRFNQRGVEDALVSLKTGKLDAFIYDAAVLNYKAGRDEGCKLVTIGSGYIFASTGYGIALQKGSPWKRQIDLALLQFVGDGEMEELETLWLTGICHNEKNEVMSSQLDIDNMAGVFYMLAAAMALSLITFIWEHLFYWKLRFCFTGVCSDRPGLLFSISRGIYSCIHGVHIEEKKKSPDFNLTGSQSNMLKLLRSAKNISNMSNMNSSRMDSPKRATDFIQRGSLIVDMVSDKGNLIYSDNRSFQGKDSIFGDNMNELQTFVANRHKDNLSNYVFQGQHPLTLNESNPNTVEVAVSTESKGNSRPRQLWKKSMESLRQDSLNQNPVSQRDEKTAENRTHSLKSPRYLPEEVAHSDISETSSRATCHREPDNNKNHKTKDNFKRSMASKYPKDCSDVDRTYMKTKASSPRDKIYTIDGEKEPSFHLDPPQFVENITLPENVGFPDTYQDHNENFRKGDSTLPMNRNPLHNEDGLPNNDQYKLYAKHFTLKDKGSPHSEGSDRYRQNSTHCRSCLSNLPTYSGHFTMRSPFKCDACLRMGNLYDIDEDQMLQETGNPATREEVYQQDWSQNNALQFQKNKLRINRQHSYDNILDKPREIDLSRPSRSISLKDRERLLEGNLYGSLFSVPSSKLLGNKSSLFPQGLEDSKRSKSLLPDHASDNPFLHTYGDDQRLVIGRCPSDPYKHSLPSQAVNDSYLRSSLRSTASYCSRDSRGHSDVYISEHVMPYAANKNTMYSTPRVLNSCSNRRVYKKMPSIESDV
Chain of diheteromeric rat GluN1/GluN2Ac1/GluN2Ac2 (r2Ac1/r2Ac2) (Q00959 23-1464, other chains not shown): as above

Compound: CS(=O)(=O)Nc1ccc(OC[C@@H](O)CN2CCN(c3ccc(F)c(F)c3)CC2)cc1 [EU93-108, (S)-N-(4-(3-(4-(3,4-Difluorophenyl)piperazin-1-yl)-2-hydroxypropoxy)phenyl)methanesulfonamide]
- Mean % Inhibition (GABAA): 1.91%
- Mean % Inhibition (PBR): -0.34%
- % Control 10 µM EU93-108 (hP2x): 96.6 ± 4.3%
- lowest dose that significantly increased latency (C57BL/6J mice [1]; female mice): 20 mg/kg
- potency when combined with morphine versus EU93-108 alone (C57BL/6J mice [1]; male mice): approximately 3 fold
- lowest dose that significantly increased latency (C57BL/6J mice [1]; male mice): 10 mg/kg
- residual current at 10 μM ([2]; 10 μM, % of maximal response, n = 6): 105%
- Ymin ([2]; residual response, Table S1, N = 6): 104.8
- tail flick latency in morphine-tolerant mice, day 5 vs day 4 (C57BL/6J mice [3]; co-administered with morphine): did not show a further decrease in latency on day 5
- tail flick latency in morphine-tolerant mice, day 5 vs day 4 (C57BL/6J mice [3]; given with saline (no morphine)): most significant decrease in latency
